Consider one molecule from patent US20190387748A1, “COMPOSITIONS AND RELATED METHODS FOR AGRICULTURE” (priority 2017, published 2019).

Type in all cases: in vivo
For assay [1], the system named is Acyrthosiphon pisum aphids. As to the kind of experiment: Aphid survival monitoring. The source says: For each treatment, 33 aphids were placed onto each leaf. Artificial diet feeding systems were changed every 2-3 days throughout the experiment. Aphids were monitored daily for survival and dead aphids were removed from the deep petri dish housing the artificial feeding system when they were discovered.
Each treatment group received approximately the same number of individuals from each of the collection plant. For each treatment, 20 aphids were placed onto each leaf. Aphids were monitored daily for survival and dead aphids were removed when they were discovered. In addition, the developmental stage (1st, 2nd, 3rd, 4th, 5th instar, and 5R, representing a reproducing 5th instar) was determined daily throughout the experiment. Pictures of aphids were taken throughout the experiment to evaluate size differences between treatment groups.
(Vroma vicia faba from Johnny's Selected Seeds) in a climate-controlled incubator (16 h light/8 h dark photoperiod; 60±5% RH; 25±2° C.). Prior to being used for aphid rearing, fava bean plants were grown in potting soil at 24° C. with 16 h of light and 8 h of darkness. To limit maternal effects or health differences between plants, 5-10 adults from different plants were distributed among 10 two-week-old plants, and allowed to multiply to high density for 5-7 days. For experiments, first and second instar aphids were collected from healthy plants and divided into 2 different treatment groups: 1) negative control (leaf injected with water plus blue food coloring) and 2) leaf injected with 50 μg/ml rifampicin in water plus blue food coloring. Each treatment group received approximately the same number of individuals from each of the collection plants. For treatment, rifampicin stock solution (25 mg/ml in 100% methanol) was diluted to 50 μg/ml in water plus blue food coloring. The solution was then placed into a 1.5 ml Eppendorf tube with a fava bean stem perfused with the solutions and the opening of the tube was closed using parafilm. This feeding system was then placed into a deep petri dish (Fisher Scientific, Cat# FB0875711) and aphids were applied to the leaves of the plant. For each treatment, 74-81 aphids were placed onto each leaf. The feeding systems were changed every 2-3 days throughout the experiment. Aphids were monitored daily for survival and dead aphids were removed from the deep petri dish when they were discovered. In addition, the developmental stage (1st, 2nd, 3rd, 4th, 5th and 5R (5th that has reproduced) instar) was determined daily throughout the experiment.
For each treatment, 49-50 aphids were placed onto each leaf. The feeding systems were changed every 2-3 days throughout the experiment. Aphids were monitored daily for survival and dead aphids were removed from the deep petri dish when they were discovered.
For each treatment, 76-80 aphids were placed onto each leaf. The feeding systems were changed every 2-3 days throughout the experiment. Aphids were monitored daily for survival and dead aphids were removed from the deep petri dish when they were discovered.
For each treatment, 50-51 aphids were placed onto each leaf. The feeding systems were changed every 2-3 days throughout the experiment. Aphids were monitored daily for survival and dead aphids were removed from the deep petri dish when they were discovered.
For each treatment, 56-59 aphids were placed onto each leaf. The feeding systems were changed every 2-3 days throughout the experiment. Aphids were monitored daily for survival and dead aphids were removed from the deep petri dish when they were discovered.
For each treatment, 57-59 aphids were placed onto each leaf. The feeding systems were changed every 2-3 days throughout the experiment. Aphids were monitored daily for survival and dead aphids were removed from the deep petri dish when they were discovered.
For each treatment, 15-87 aphids were placed onto each leaf. Artificial diet feeding systems were changed every 2-3 days throughout the experiment.

In assay [2] the test system is Acyrthosiphon pisum aphids. The assay is described as follows: Aphid fecundity (offspring production). Conditions: 10 or 100 uM pantothenol. The protocol:
In addition, the developmental stage (1st, 2nd, 3rd, 4th, 5th instar) was determined daily throughout the experiment. Once an aphid reached the 4th instar stage, they were given their own artificial feeding system in a deep petri dish so that fecundity could be monitored once they reached adulthood.
(§1) For adult aphids, new nymphs were counted daily and then discarded. At the end of the experiments, fecundity was determined as the mean number of offspring produced daily once the aphid reached adulthood. Pictures of aphids were taken throughout the experiment to evaluate size differences between treatment groups.
In addition, the developmental stage (1st, 2nd, 3rd, 4th, 5th, and 5R (5th that has reproduced) instar) was determined daily throughout the experiment. Once an aphid reached the 4th instar stage, they were given their own artificial feeding system in a deep petri dish so that fecundity could be monitored once they reached adulthood.
(§2) For adult aphids, new nymphs were counted daily and then discarded. At the end of the experiments, fecundity was measured in two ways: 1) the mean day at which the first offspring for the treatment group was determined and 2) the mean number of offspring produced daily once the aphid reached adulthood. […]
In addition, the developmental stage (1st, 2nd, 3rd, 4th, 5th instar) was determined daily throughout the experiment. […]

Assay [3] deals with Acyrthosiphon pisum aphids. The assay is described as follows: Aphid body area (size) measurement. The conditions noted are these: 10 or 100 uM pantothenol, through plants; by 3 days post-treatment. The method, then: as §1
Each treatment group received approximately the same number of individuals from each of the collection plant. For each treatment, 20 aphids were placed onto each leaf. Aphids were monitored daily for survival and dead aphids were removed when they were discovered. In addition, the developmental stage (1st, 2nd, 3rd, 4th, 5th instar, and 5R, representing a reproducing 5th instar) was determined daily throughout the experiment. […]
as §2
Aphids LSR-1 (which harbor only Buchnera), Acyrthosiphon pisum were grown on fava bean plants (Vroma vicia faba from Johnny's Selected Seeds) in a climate-controlled incubator (16 h light/8 h dark photoperiod; 60±5% RH; 25±2° C.). […] Aphids were monitored daily for survival and dead aphids were removed from the deep petri dish when they were discovered. […]

Entries after “also recorded” stand apart in the source; their conditions may differ.

For `CC(C)(CO)[C@@H](O)C(=O)NCCCO` [pantothenol], the “Aphid survival / mortality” value in assay [1] (10 or 100 uM pantothenol, through plants) is on record as “increased aphid mortality; also recorded: negatively affected aphid fitness”. In addition, in assay [1] (leaf coating, 10 uM pantothenol), the Aphid survival rate result is on record as “resulted in aphid death; also recorded: lower survival rates than aphids placed on coated leaves with the control solution”. The Aphid reproduction entry in assay [2] is given as “loss of reproduction”. Moreover, the “Aphid area (body size)” value in assay [3] is on record as “drastic effect of pantothenol treatment; also recorded: smaller in area than untreated controls”.
